Test results from ChEMBL document CHEMBL5465560, “Selectivity Literature for EUbOPEN Chemogenomic Library” (2024).

Tests used:
[1] = target: Serine/threonine-protein kinase PAK 2 (Homo sapiens) (UniProt Q13177); conditions: at 10 µM
[2] = target: Histone-lysine N-methyltransferase, H3 lysine-79 specific (Homo sapiens, UniProt Q8TEK3); assay: Selectivity interaction (Methyltransferase screen (radiometric assays, panel of 8 PRMTs, 21 protein lysine methyltransferases, 3 DNA methyltransferases, and one RNA methyltransferase)) EUB0000272b DOT1L
[3] = target: DNA (cytosine-5)-methyltransferase 3A (Homo sapiens) (UniProt Q9Y6K1); assay: Selectivity interaction (Methyltransferase screen (radiometric assays, panel of 8 PRMTs, 21 protein lysine methyltransferases, 3 DNA methyltransferases, and one RNA methyltransferase)) EUB0000272b DNMT3A
[4] = target: Serine/threonine-protein kinase PAK 2 (Homo sapiens) (UniProt Q13177); assay: Selectivity interaction (ProQinase) EUB0000171b PAK2
[5] = target: CDK8/Cyclin C (Homo sapiens) (UniProt P49336+P24863); assay: Selectivity interaction (ProQinase) EUB0000171b CDK8; format: protein-complex assay
[6] = target: T1, Activin receptor type-1B (Homo sapiens) (UniProt P36896); assay: Selectivity interaction (KinomeScan (DiscoverX)) EUB0001079a ACVR1B; conditions: at 1 µM
T1 sequence (whole entry): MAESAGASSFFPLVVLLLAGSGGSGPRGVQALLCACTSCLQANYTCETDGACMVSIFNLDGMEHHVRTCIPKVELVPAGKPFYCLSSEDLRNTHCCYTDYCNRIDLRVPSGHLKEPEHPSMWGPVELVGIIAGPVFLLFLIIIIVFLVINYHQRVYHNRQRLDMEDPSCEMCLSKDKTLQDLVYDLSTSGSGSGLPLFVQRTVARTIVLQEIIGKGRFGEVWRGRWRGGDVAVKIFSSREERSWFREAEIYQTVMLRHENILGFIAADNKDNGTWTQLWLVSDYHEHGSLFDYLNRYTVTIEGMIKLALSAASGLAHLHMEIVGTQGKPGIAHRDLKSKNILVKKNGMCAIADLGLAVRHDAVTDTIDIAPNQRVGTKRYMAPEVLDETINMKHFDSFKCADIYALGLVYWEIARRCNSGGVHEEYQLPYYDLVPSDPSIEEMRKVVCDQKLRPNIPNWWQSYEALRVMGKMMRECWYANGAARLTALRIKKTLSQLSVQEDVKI

[7] = target: RAC-gamma serine/threonine-protein kinase (Homo sapiens, UniProt Q9Y243); assay: Selectivity interaction (Kinase panel (Z-LYTE Assay)) EUB0001632a AKT3; conditions: at 10 µM
[8] = target: Serine/threonine-protein kinase 38-like (Homo sapiens) (UniProt Q9Y2H1); assay: Selectivity interaction (ActivX KiNativ screen (kinase selectivity in THP-1 cell lysates)) EUB0000639a STK38L; format: subcellular; conditions: lysate, at 0.2 µM
[9] = target: Serine/threonine-protein kinase tousled-like 2 (Homo sapiens) (UniProt Q86UE8); assay: Selectivity interaction (ActivX KiNativ screen (kinase selectivity in THP-1 cell lysates)) EUB0000639a TLK2; format: subcellular; conditions: lysate, at 1 µM
[10] = target: T2, Megakaryocyte-associated tyrosine-protein kinase (Homo sapiens) (UniProt P42679); assay: Selectivity interaction (KinomeScan (DiscoverX)) EUB0000595a MATK; conditions: at 10 µM
T2 sequence (whole entry): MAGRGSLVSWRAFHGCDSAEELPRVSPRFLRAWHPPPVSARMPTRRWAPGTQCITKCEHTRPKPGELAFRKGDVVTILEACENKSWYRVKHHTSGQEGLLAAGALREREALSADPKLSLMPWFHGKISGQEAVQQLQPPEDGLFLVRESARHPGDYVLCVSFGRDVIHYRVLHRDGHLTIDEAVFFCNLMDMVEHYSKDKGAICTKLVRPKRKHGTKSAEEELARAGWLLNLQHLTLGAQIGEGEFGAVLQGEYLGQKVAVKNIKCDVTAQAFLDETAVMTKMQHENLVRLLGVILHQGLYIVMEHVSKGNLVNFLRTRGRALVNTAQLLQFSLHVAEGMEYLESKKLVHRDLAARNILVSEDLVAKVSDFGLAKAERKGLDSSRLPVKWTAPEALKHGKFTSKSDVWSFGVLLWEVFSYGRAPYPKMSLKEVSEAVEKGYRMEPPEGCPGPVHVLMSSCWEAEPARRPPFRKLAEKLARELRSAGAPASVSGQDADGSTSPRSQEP

[11] = target: Serine/threonine-protein kinase 32B (Homo sapiens) (UniProt Q9NY57); assay: Selectivity interaction (KinomeScan (DiscoverX)) EUB0000618a STK32B; conditions: at 10 µM
[12] = target: Receptor-type tyrosine-protein kinase FLT3 (Homo sapiens) (UniProt P36888); assay: Selectivity interaction (Ambit KINOMEscan and KiNATiv profiling in Jurkat cells) EUB0000090b FLT3; format: cell-based; conditions: at 1 µM
[13] = target: Epidermal growth factor receptor (Homo sapiens, UniProt P00533); assay: Selectivity interaction (Kinase screening (Nanosyn)) EUB0000604a EGFR
Chain of Epidermal growth factor receptor (P00533 whole entry): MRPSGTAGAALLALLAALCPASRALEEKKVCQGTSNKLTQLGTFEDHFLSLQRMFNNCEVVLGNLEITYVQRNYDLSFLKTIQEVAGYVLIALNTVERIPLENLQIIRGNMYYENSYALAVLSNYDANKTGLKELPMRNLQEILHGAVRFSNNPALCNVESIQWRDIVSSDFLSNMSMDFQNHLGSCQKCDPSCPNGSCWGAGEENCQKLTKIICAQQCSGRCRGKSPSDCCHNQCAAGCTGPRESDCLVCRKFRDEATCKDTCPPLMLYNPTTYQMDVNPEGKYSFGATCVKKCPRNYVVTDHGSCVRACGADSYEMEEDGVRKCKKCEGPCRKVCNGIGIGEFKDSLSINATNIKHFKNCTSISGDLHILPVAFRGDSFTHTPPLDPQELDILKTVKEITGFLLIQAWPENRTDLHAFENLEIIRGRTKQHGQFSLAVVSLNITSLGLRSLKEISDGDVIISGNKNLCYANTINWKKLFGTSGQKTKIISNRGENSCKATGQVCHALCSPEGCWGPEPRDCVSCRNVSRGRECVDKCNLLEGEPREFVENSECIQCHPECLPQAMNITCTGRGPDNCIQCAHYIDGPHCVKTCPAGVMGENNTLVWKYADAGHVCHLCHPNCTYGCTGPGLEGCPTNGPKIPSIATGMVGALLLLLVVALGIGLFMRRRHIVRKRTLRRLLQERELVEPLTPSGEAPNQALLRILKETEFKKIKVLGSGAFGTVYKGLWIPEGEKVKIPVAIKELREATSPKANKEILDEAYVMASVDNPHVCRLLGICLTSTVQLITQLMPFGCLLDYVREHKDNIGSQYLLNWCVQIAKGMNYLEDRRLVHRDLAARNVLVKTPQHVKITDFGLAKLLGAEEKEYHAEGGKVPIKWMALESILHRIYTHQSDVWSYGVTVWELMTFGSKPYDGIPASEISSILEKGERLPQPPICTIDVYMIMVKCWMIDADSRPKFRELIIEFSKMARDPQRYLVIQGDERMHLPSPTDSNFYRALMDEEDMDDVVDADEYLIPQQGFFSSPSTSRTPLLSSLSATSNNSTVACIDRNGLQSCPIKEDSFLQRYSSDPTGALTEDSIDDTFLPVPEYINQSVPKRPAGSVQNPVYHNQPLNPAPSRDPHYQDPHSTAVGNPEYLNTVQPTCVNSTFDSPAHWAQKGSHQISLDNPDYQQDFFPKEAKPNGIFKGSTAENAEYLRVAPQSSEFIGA

Chain of Serine/threonine-protein kinase PAK 2 (Homo sapiens) (Q13177 whole entry): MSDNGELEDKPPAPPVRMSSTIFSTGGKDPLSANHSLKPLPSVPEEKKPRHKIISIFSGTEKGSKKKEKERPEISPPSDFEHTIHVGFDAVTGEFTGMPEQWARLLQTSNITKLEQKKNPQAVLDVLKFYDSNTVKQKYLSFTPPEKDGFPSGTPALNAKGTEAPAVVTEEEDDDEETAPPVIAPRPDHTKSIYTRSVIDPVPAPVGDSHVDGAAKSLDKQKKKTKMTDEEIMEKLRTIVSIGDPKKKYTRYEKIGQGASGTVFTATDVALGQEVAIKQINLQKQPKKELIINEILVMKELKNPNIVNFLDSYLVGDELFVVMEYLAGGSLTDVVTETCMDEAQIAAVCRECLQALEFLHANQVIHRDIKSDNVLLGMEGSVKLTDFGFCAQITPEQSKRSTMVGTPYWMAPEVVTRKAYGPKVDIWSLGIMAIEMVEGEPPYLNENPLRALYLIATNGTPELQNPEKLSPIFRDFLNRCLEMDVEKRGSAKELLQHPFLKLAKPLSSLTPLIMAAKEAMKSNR
Chain of DNA (cytosine-5)-methyltransferase 3A (Homo sapiens) (Q9Y6K1 whole entry, looked up): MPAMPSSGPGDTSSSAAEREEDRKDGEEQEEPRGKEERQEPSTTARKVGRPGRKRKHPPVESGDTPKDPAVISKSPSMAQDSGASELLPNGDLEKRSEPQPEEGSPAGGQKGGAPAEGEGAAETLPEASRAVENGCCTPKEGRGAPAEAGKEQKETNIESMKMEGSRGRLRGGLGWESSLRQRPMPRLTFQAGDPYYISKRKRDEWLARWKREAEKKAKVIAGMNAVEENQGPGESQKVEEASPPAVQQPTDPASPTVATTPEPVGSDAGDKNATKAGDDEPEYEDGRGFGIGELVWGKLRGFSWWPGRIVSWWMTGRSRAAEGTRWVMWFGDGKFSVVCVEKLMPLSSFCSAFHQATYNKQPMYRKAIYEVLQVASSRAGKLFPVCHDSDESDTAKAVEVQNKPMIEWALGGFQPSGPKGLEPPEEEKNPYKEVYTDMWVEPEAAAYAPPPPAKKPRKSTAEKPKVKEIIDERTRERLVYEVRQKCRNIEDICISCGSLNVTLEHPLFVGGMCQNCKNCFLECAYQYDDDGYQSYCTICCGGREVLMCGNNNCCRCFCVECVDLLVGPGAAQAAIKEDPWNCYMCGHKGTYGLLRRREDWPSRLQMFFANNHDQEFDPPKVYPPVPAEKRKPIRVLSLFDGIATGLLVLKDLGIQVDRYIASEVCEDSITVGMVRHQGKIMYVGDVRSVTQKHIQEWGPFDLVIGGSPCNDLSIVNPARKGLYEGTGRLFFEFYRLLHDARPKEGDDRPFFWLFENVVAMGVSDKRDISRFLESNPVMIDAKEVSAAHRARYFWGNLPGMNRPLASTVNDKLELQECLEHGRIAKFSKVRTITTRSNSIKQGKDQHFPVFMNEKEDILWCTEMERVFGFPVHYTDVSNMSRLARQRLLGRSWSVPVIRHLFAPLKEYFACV
Chain of Histone-lysine N-methyltransferase, H3 lysine-79 specific (Q8TEK3 whole entry, looked up): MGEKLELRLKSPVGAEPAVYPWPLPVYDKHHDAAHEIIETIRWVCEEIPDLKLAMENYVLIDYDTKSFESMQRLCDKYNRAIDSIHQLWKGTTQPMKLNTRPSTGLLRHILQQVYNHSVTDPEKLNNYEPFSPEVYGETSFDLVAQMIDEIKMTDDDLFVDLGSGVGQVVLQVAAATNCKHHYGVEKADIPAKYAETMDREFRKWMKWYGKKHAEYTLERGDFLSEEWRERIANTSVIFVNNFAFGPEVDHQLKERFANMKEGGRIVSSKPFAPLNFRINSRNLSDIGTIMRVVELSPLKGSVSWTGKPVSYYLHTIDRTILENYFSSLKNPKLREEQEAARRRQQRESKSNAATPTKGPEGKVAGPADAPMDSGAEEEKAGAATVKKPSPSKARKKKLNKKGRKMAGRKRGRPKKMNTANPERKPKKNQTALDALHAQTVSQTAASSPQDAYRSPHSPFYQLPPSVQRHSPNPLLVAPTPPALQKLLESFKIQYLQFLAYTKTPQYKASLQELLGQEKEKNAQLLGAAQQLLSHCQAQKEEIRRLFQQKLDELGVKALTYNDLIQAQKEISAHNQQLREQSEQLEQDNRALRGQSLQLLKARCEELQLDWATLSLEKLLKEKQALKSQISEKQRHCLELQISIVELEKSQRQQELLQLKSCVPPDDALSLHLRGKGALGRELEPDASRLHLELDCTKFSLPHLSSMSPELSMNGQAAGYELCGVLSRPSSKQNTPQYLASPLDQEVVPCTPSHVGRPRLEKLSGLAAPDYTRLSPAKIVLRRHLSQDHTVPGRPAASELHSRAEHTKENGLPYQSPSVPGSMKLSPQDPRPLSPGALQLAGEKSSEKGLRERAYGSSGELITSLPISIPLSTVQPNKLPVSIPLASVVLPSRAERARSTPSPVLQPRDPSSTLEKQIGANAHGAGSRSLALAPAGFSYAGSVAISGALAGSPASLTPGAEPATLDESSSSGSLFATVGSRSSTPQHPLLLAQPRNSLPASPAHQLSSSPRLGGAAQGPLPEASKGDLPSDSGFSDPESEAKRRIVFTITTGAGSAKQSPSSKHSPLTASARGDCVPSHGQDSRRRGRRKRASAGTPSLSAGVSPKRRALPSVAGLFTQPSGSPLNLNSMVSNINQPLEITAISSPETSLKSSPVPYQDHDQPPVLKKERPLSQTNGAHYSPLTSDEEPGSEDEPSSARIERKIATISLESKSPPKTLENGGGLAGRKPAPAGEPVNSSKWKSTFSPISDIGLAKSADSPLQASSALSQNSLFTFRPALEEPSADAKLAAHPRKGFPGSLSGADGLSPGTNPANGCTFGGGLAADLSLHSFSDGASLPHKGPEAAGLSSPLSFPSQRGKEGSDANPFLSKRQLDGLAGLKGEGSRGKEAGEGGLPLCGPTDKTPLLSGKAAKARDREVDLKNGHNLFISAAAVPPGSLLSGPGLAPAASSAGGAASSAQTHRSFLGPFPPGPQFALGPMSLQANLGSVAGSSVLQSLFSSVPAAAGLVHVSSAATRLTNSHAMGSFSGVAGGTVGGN
Chain of RAC-gamma serine/threonine-protein kinase (Q9Y243 whole entry): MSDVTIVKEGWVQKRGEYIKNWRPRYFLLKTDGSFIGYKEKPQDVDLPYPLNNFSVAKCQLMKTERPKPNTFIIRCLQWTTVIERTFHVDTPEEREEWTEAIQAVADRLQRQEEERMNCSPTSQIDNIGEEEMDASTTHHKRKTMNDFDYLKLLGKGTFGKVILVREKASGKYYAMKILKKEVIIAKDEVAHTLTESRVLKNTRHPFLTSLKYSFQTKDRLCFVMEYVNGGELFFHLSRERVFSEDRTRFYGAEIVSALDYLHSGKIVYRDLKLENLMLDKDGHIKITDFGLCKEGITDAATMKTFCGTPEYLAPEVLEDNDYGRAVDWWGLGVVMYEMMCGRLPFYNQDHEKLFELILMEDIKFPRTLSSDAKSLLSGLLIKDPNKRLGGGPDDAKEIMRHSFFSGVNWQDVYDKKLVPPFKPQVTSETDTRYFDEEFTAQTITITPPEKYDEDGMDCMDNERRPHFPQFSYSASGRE
Chain of Serine/threonine-protein kinase 32B (Homo sapiens) (Q9NY57 whole entry): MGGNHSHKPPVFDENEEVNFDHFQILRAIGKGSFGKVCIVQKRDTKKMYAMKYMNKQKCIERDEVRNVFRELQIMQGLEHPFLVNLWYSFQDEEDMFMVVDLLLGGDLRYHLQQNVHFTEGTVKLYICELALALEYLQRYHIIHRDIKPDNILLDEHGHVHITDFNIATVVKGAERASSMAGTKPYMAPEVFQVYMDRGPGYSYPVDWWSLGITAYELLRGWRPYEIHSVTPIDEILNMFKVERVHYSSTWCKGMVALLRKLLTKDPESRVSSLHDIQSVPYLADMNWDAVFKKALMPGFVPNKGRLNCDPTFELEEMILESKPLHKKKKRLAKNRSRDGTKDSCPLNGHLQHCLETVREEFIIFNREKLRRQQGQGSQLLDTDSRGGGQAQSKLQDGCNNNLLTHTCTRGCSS

CCN(CC)CCCCNc1ncc2cc(-c3cc(OC)cc(OC)c3)c(NC(=O)NC(C)(C)C)nc2n1
% of control [1]: 100%

Cc1cc(C)cc([C@H]2c3cc(C)ccc3NC(=O)CN2C(=O)c2ccc(Br)s2)c1
% of activity ([2]; at 1 µM): 100%
% of activity ([2]; at 10 µM): 94.3%
% of activity ([3]; at 1 µM): 98.3%
% of activity ([3]; at 10 µM): 93%

C=CC(=O)Nc1cccc(C(=O)Nc2ccc(Nc3cc(-c4[nH]c(SC)nc4C)ccn3)cc2)c1
% of control ([4]; at 1 µM): 99%
% of control ([4]; at 5 µM): 86%
% of control ([5]; at 1 µM): 67%
% of control ([5]; at 5 µM): 29%

Nc1cnc(N2CCc3cc(S(=O)(=O)Nc4c(F)cc(Cl)cc4F)cc(N4CCCC4=O)c32)nc1 [TP-020n]
% of control [6]: 96%

Cn1cc(-n2cnc3c(NCc4nc5cc(Cl)c(Cl)cc5[nH]4)nc(N4CCOCC4)nc32)cn1
% of control [7]: 2.65%

CC[C@@H]1[C@H](F)C(=O)N[C@@H]1COc1nccc2cc(C(N)=O)c(OC)cc12 [ZIMLOVISERTIB]
% of inhibition [8]: 18.4%
% of inhibition [9]: 43.3%

COCC(=O)NC/C=C/c1ccc2ncnc(Nc3ccc(Oc4ccc(C)nc4)c(C)c3)c2c1 [CP-724714]
% of control [10]: 100%

O[C@H]1CC[C@H](Nc2ncc3nc(Nc4c(F)cc(F)cc4F)n([C@H]4CCOC4)c3n2)CC1
% of control [11]: 87%

CN(C)C/C=C/C(=O)Nc1ccc(C(=O)N2CCCC(Nc3ncc(Cl)c(-c4c[nH]c5ccccc45)n3)C2)cc1 (configuration not stated)
% of control [12]: 95%

Cc1cnc(Nc2ccc(F)cc2Cl)nc1-c1c[nH]c(C(=O)N[C@H](CO)c2cccc(Cl)c2)c1
% of inhibition [13]: 6%
